Article PMC9332833 (Cancers, 2022)
Entries after “also recorded” stand apart in the source; their conditions may differ.

Key:
Assay type in all cases: cell-based, human
[1] = system: K562 cells; test: K562 in BK124.1 long term experiment (6 months), MDR1 induction; conditions: 1 µM or 2 µM for at least 6 months
[2] = system: K562-MDR1 cells; test: MTT viability test, K562-MDR1; conditions: Homo sapiens; MTT, 48 h
Description: The K562-MDR1 cell line was developed using increasing concentrations of the commonly used antimitotic drug vincristine on a polyclonal K562 population, as described earlier. […] The DMSO concentration in the culture was 0.1%. The vincristine dose was doubled every 2–3 weeks (at least twice for each experiment) after the cells reached confluence. Cell’s viability was above 90%, as confirmed by Muse Cell Analyzer (Merck Millipore, Burlington, MA, USA). The final concentration of vincristine reached was 0.1 μM. The increase in the K562-MDR1 population was confirmed by flow cytometry and PCR.
Cells were seeded in 96-well plates; after 24 h, medium with the appropriate drug concentration was added to each well. After 48 h, Tetrazolium Bromide (Sigma-Aldrich, St. Louis, MO, USA) was added to each well for 2–3 h. After that, cells were lysed and formazan crystals were dissolved. Absorbance was read using an iMark Microplate absorbance reader (Bio-Rad, Hercules, CA, USA). Results were calculated relative to cells treated with DMSO only. […]
Cells were seeded in 96-well plates at 7 × 10^3 cells/well in 50 µL of complete medium (for K562 or K562-MDR1) or at 50 × 10^3 cells/well in 50 µL of complete medium (CD34+ cells). After 24 hours, 50 µL of medium with the appropriate drug concentration was added to each well. The final DMSO concentration per well was 1% for K562 and K562-MDR1 and 0.1% for CD34+ cells. After 48 hours, 20 µL of Tetrazolium Bromide (Sigma-Aldrich, St. Louis, MO, USA) at a concentration of 5 mg/mL was added to each well. Cells were incubated for 2-3 hours in a cell culture incubator, and then 10% SDS with 1% HCl was added to each well to lyse the cells and dissolve the formazan crystals. Plates were […]

[3] = system: CD34+/CD38+ cells from CML patients; test: Annexin V-FITC/PI apoptosis in CD34+/CD38+ subpopulation; conditions: 2.5 or 5 µM, 24 h
Protocol: Pre-cultured cells were treated with BK124.1 or DMSO for 24 h. For purity analysis, cells were stained with anti-human CD34-APC antibody, anti-human CD38-PE (Biolegend, San Diego, CA, USA), and propidium iodide according to the manufacturers’ protocols. For apoptosis analysis, cells were additionally stained with Annexin V-FITC kit (BD, Franklin Lakes, NJ, USA) according to the manufacturer’s protocol. Appropriate isotype controls were included. Stained cells were immediately analyzed on a BD LSRFortessa flow cytometer with FlowJo software (BD, Franklin Lakes, NJ, USA), after exclusion of doublets. Purity was analyzed on live cells only, and apoptosis separately for each population of cells (CD34^+/CD38^+ or CD34^+/CD38^−).
[…] Next, we isolated CD34+ cells (EasySep™ Human CD34 Positive Selection Kit II, StemCell Technologies, Vancouver, Canada), counted them and assessed viability with Muse Cell Analyzer (Merck Millipore, Burlington, MA, USA). […] The purity of the live CD34+ fraction was assessed by flow cytometry with anti-human CD34-APC antibody, compared with an appropriate isotype control (Biolegend, San Diego, CA, USA), and propidium iodide (Sigma-Aldrich, St. Louis, MO, USA). […]
[…] In both cases stained cells were immediately analyzed on a BD LSRFortessa flow cytometer and analyzed with FlowJo software (BD, Franklin Lakes, NJ, USA). […]

Compound: CCC12C(=O)C(CC)(C(c3ccccc3)=C1c1ccccc1)C1C(=O)N(CC(O)CNC(C)C)C(=O)C12 (stereo not drawn) [BK124.1, 4-[2-hydroxy-3-(propan-2-ylamino)propyl]-1,7-diethyl-8,9-diphenyl-4-azatricyclo [5.2.1.02,6]dec-8-ene-3,5,10-trione]
- Induction of MDR1 in standard K562 cells [1]: not able to induce MDR1; also recorded: unable to induce MDR1 expression
- IC50 [2]: 2160 nM
- Apoptosis in CD34+/CD38+ cells compared with CD34+/CD38- cells [3]: even higher apoptosis
